This note sets out measurements from patent US12180207B2 (ARRAY BIOPHARMA INC., priority 2018, dated 2024).

SMILES strings stand for the structures.

The IC50 is the midpoint of a concentration-inhibition curve.

Assay [1] has as its target dephosphorylated FGFR1 (SEQ ID NO: 1, amino acids 458 to 765) (Homo sapiens (Human), UniProt P11362). The assay is described as follows: FGFR enzyme binding assay (HTRF tracer displacement), FGFR1. To be noted: 5 nM dephosphorylated FGFR1, average of multiple determinations if made. The gist of the method: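 Kinase and tracer were incubated with compound for 60 minutes at 22° C. Tracer displacement was then measured by HTRF, and results were expressed as POC with 1 μM control inhibitor defining full displacement.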

Assay [2] concerns the target recombinant human FGFR1 catalytic domain (amino acids 308-731) (Homo sapiens (Human), UniProt P11362). The assay is described as follows: FGFR1 enzyme activity assay (LanthaScreen TR-FRET). Conditions: 20 min incubation at 22° C., average of multiple determinations if made, read-out: FGFR1 Enz FRET IC50. Format: biochemical. The essentials:
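His-tagged FGFR1 kinase domain with 100 nM Alexa Fluor 647-poly-GT peptide and ATP in pH 7.5 HEPES/MgCl2 buffer with 2% DMSO, 20 min at 22 °C. Quenched with EDTA plus 2 nM Eu-PY20 antibody and read after 60 min. IC50 comes from a 4-parameter fit of percent of control.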
In general terms: Time-resolved FRET reads energy transfer from a long-lived donor to a nearby acceptor.

For assay [3], the target named is recombinant human FGFR3 (amino acids R397-T806) (Homo sapiens (Human), UniProt P22607). The assay is described as follows: FGFR3 enzyme activity assay (LanthaScreen TR-FRET). Format: biochemical. To be noted: 25 μM ATP, 10 min incubation at 22° C., average of multiple determinations if made, read-out: FGFR3 Enz FRET IC50. The gist of the method:
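GST-HIS6-tagged human FGFR3 (R397-T806) was reacted with 100 nM Alexa Fluor 647-Poly-GT substrate and 25 μM ATP plus compound in HEPES/MgCl2/Triton buffer, pH 7.5, 2% DMSO, for 10 min at 22 °C.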

For assay [4], the target named is FGFR1 (SEQ ID NO: 1, amino acids 458-765) (Homo sapiens (Human), UniProt P11362). The assay is described as follows: LC/MS FGFR1 kobs assay (covalent protein modification). Format: binding. Conditions: 500 nM FGFR1, 3 μM compound. The essentials: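 Covalent labeling of FGFR1 kinase domain (aa 458-765) tracked over time by intact-protein LC/MS after formic acid quench. kobs derived by fitting DMSO-normalized percent unmodified FGFR1 to an exponential decay model.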
FGFR1 (SEQ ID NO: 1, amino acids 458-765), sequence (P11362 458-765): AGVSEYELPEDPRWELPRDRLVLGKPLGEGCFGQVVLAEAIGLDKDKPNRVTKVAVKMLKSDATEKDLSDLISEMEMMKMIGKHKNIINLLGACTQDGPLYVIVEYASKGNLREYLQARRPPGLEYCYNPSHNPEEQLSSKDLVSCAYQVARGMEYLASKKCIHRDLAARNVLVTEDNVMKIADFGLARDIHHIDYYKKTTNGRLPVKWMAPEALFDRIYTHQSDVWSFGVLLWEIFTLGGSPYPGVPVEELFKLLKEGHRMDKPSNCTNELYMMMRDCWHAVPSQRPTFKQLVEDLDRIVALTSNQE

Assay [5] concerns the target recombinant human FGFR2 cytoplasmic domain (amino acids 403-822) (Homo sapiens (Human), UniProt P21802). The assay is described as follows: FGFR2 enzyme activity assay (LanthaScreen TR-FRET). The class given is biochemical. Conditions: 15 μM ATP, 20 min incubation at 22° C., average of multiple determinations if made, read-out: FGFR2 Enz FRET IC50. The essentials: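 Substrate phosphorylation was read by TR-FRET using Eu-PY20 antibody (60 min, 22 °C) after a 20 min, 22 °C reaction. The reaction used 15 μM ATP, 100 nM fluorescent poly-GT peptide and His-tagged FGFR2 403-822 ([…]) at pH 7.5 with 2% DMSO.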

recombinant human FGFR1 catalytic domain (amino acids 308-731), sequence (P11362 other isoform, or with tags, fused parts or gaps): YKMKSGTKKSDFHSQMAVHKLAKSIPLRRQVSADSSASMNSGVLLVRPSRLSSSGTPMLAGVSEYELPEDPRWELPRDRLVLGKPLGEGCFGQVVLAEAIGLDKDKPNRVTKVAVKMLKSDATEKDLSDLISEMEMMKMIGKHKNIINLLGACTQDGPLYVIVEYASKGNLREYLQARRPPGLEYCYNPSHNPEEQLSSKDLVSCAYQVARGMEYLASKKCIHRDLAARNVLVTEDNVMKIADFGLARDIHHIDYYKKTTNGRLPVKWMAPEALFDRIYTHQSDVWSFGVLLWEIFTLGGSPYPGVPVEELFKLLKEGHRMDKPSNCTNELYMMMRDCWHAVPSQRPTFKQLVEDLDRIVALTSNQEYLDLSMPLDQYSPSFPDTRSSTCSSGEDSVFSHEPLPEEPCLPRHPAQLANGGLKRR
recombinant human FGFR3 (amino acids R397-T806), sequence (P22607 397-806): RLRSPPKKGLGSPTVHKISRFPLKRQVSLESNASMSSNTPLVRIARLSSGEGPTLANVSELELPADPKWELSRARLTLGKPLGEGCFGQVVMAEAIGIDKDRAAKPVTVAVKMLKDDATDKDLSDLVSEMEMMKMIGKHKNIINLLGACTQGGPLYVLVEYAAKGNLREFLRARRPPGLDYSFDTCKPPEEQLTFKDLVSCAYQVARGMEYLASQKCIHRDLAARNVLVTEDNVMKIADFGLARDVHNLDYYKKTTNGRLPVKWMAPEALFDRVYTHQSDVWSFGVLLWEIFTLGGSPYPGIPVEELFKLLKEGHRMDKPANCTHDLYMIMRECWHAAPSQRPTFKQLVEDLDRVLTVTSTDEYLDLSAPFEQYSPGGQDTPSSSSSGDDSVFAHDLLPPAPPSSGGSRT
dephosphorylated FGFR1 (SEQ ID NO: 1, amino acids 458 to 765), sequence (P11362 458-765): as the sequence (P11362 458-765) above
recombinant human FGFR2 cytoplasmic domain (amino acids 403-822), sequence (P21802 402-821): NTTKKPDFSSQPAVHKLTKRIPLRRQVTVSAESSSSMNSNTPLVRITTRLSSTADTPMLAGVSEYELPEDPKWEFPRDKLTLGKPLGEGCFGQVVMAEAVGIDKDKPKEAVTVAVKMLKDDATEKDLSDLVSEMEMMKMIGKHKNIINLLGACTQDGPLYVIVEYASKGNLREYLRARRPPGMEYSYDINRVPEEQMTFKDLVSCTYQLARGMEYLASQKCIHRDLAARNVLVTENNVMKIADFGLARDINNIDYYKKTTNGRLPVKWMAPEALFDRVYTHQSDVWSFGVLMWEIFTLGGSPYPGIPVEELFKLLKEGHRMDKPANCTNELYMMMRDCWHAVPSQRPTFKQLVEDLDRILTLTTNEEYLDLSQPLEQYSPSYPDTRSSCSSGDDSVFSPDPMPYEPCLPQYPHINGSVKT

In the case of `C=CC(=O)N1CC(C)(CN2CCC(n3ncc(-c4cc(OC)c5c(C#N)cnn5c4)c3C)CC2)C1` [Example 90, 6-(1-(1-((1-acryloyl-3-methylazetidin-3-yl)methyl)piperidin-4-yl)-5-methyl-1H-pyrazol-4-yl)-4-methoxypyrazolo[1,5-a]pyridine-3-carbonitrile], the IC50 in assay [1] is 379 nM; in assay [2], 165 nM; in assay [3], 21 nM; in assay [5] it was 56 nM. In addition, in assay [4], the “FGFR1 Enz kobs” value is 0.00243 min⁻¹.

In the case of `C=CC(=O)N1CC(CN2CCC(n3ncc(-c4cc(OC)c5c(C#N)cnn5c4)c3C)CC2)(OC)C1` [Example 91, 6-(1-(1-((1-acryloyl-3-methoxyazetidin-3-yl)methyl)piperidin-4-yl)-5-methyl-1H-pyrazol-4-yl)-4-methoxypyrazolo[1,5-a]pyridine-3-carbonitrile], the IC50 in assay [1] came out at 284 nM; in assay [2], 197 nM; in assay [3] it was 19 nM; in assay [5], 99 nM. For the same compound, the “FGFR1 Enz kobs” value in assay [4] turned out to be 0.00431 min⁻¹.

As to `C=CC(=O)N1CC(CN2CC(n3ncc(-c4cc(OC)c5c(C#N)cnn5c4)c3C)C2)C1` [Example 92], the IC50 in assay [1] is 444 nM; in assay [2], 285 nM; in assay [3], 39 nM; in assay [5], 131 nM. Also, the “FGFR1 Enz kobs” value in assay [4] turned out to be 0.00191 min⁻¹.

Consider `C=CC(=O)N1CC(C)(CN2CC(n3ncc(-c4cc(OC)c5c(C#N)cnn5c4)c3C)C2)C1` [Example 93, 6-(1-(1-((1-acryloyl-3-methylazetidin-3-yl)methyl)azetidin-3-yl)-5-methyl-1H-pyrazol-4-yl)-4-methoxypyrazolo[1,5-a]pyridine-3-carbonitrile], for which the IC50 in assay [1] stood at 482 nM; in assay [2], 376 nM; in assay [3], 41 nM; in assay [5], 127 nM. For the same compound, in assay [4], the “FGFR1 Enz kobs” value stood at 0.0012 min⁻¹.

Take `C=CC(=O)N1CC(C(=O)N2CCC(n3cc(-c4cc(OC)c5c(C#N)cnn5c4)c(C)n3)CC2)C1` [Example 94, 6-(1-(1-(1-acryloylazetidine-3-carbonyl)piperidin-4-yl)-3-methyl-1H-pyrazol-4-yl)-4-methoxypyrazolo[1,5-a]pyridine-3-carbonitrile]: the IC50 is 346 nM in assay [1], 73 nM in assay [2], 8 nM in assay [3] and 22 nM in assay [5]. The “FGFR1 Enz kobs” value in assay [4] amounted to 0.00145 min⁻¹.

For the compound `C=CS(=O)(=O)N[C@H]1CC[C@H](C(=O)N2CCC(n3cc(-c4cc(OC)c5c(C#N)cnn5c4)cn3)CC2)C1` [Example 190, N-((1S,3S)-3-(4-(4-(3-cyano-4-methoxypyrazolo[1,5-a]pyridin-6-yl)-1H-pyrazol-1-yl)piperidine-1-carbonyl)cyclopentyl)-ethenesulfonamide], the IC50 was found to be 37 nM in assay [1], 9 nM in assay [2], 1 nM in assay [3] and 3 nM in assay [5]. In addition, the “FGFR1 Enz kobs” value in assay [4] was found to be 0.00423 min⁻¹.

With `C=CS(=O)(=O)N[C@@H]1CC[C@H](C(=O)N2CCC(n3cc(-c4cc(OC)c5c(C#N)cnn5c4)cn3)CC2)C1` [Example 191, N-((1R,3S)-3-(4-(4-(3-cyano-4-methoxypyrazolo[1,5-a]pyridin-6-yl)-1H-pyrazol-1-yl)piperidine-1-carbonyl)cyclopentyl)-ethenesulfonamide], the IC50 in assay [1] amounted to 103 nM; in assay [2], 19 nM; in assay [3] it was 4 nM; in assay [5], 5 nM. The “FGFR1 Enz kobs” value in assay [4] came out at 0.00583 min⁻¹.
